These are literature values, as cited in patent US4826982A, “Quinolonecarboxylic acid derivatives” (Kyorin Pharmaceutical Co., Ltd., priority 1985, dated 1989).

The test system of one data set is gram-positive bacteria. Conditions: background art; cited from earlier work.
The subject of a further data set is gram-negative bacteria. Particulars: background art; CI-934 compared with Norfloxacin and Ciprofloxacin; cited from earlier work.

In the case of `CCNCC1CCN(c2c(F)cc3c(=O)c(C(=O)O)cn(CC)c3c2F)C1` (stereo not shown) [CI-934, 1-ethyl-7-[3-[(ethylamino)methyl]-1-pyrrolidinyl]-6,8-difluoro-1,4-dihydro-4-oxo-3-quinolinecarboxylic acid], the “activity against gram-positive bacteria” value in the data set on gram-positive bacteria is recorded as “relatively strong activity against gram-positive bacteria”. Also, the “activity against gram-negative bacteria” value with gram-negative bacteria is “weaker activity against gram-negative bacteria than such known compounds as Norfloxacin and Ciprofloxacin”.
With `CCn1cc(C(=O)O)c(=O)c2cc(F)c(N3CCNCC3)cc21` [Norfloxacin], the “activity against gram-positive bacteria” value in the data set on gram-positive bacteria is listed as “effective”. In the data set with gram-negative bacteria, the “activity against gram-negative bacteria” value is “effective”.
